In patent US11578056B2, “Solid forms comprising (S)-2-(2,6-dioxopiperidin-3-yl)-4-((2-fluoro-4-((3-morpholinoazetidin-1-yl)methyl)benzyl)amino)isoindoline-1,3-dione and salts thereof, and compositions comprising and methods of using the same” (Celgene Corporation, priority 2019, dated 2023):
pEC50, pIC50: −log10 of the molar value.

Experiments:
Type in all cases: cell-based
hematological cell lines = assay: Hematological cell line viability/apoptosis flow cytometry assay, whole panel; settings: panel of hematological cell lines, 0.00015 to 10 μM, 5 days
Protocol: (§1) Cell Proliferation and Viability Assay Using Hematological Cell Lines: The following exemplary anti-proliferative assay uses exemplary hematological cell lines in the following. The in vitro growth inhibitory activity of Compound 1 described herein was evaluated using a 384-well flow cytometry assay.
The cell lines were plated in 384-well flat bottom plates and assessed with increasing concentrations of compound ranging from 0.00015 to 10 μM or dimethyl sulfoxide (DMSO) control. The final concentration of DMSO was 0.1% (v/v). Following the addition of Compound 1 or DMSO and incubation for 120 hours, cell number and cell death were analyzed by flow cytometry (Attune®, Thermo Fisher) using Annexin V and the live-cell impermeant DNA dye, DRAQ7. […]
Flow cytometry data analysis was then performed using the Flow Jo_v10 software to determine the number of viable cells (Annexin V and DRAQ7 double negative staining cells) and percentage of apoptotic cells (Annexin V positive cells) for each condition. […] The IC50 (50% inhibitory concentration) and Emax (maximum efficacy achieved) values were then calculated by performing nonlinear regression curve fitting using log(inhibitor) vs. normalized response—variable slope analysis on GraphPad Prism 7.03. Area under the curve (AUC) was calculated by performing area under curve analysis on GraphPad Prism 7.03. […]

SU-DHL-4 cell line = assay: Cell proliferation and viability assay using SU-DHL-4 cell line (CellTiter-Glo, 1536-well); settings: Homo sapiens; SU-DHL-4, 120 hours, Cell Titer-Glo luminescence
Protocol: Cell Proliferation and Viability Assay Using SU-DHL-4 Cell Line: The following exemplary assay uses a DLBCL cell line, for example, the SU-DHL-4 cell line (Deutsche Sammlung von Mikroorganismen and Zellkulturen GmbH [DSMZ]: catalogue number ACC-495) at 120 hours post-treatment. The seeding density for SU-DHL-4 can be optimized to ensure assay linearity in 1536-well plates.
Increasing concentrations (0.5 nM to 10 μM) of Compound 1 were each spotted in a 20-point dilution fashion (unevenly spaced data points) via an acoustic dispenser (EDC ATS-100) into an empty 1536-well plate. The DMSO concentration was kept constant for a final assay concentration of 0.1% DMSO. […] At the time when exposure of cells to compound began (to), initial viable cell number was assessed via Cell Titer-Gb® Luminescent Cell Viability Assay at a 1 vol: 2 vol ratio according to manufacturer's instructions (Promega Corporation, Madison, Wis.) by quantifying the level of luminescence generated by adenosine-5′-triphosphate (ATP) present in viable cells. After 120 hours, cell viability of the treated cells was assessed via Cell Titer-Gb® and read for luminescence. All growth inhibition curves were processed and evaluated using Activity Base (IDBS, Alameda, Calif.). […]

NCI-H929 cell line = assay: Hematological cell line viability/apoptosis flow cytometry assay; settings: NCI-H929 (MM), 120 h
Protocol: as §1
(§2) The cell lines were plated in 384-well flat bottom plates and assessed with increasing concentrations of compound ranging from 0.00015 to 10 μM or dimethyl sulfoxide (DMSO) control. The final concentration of DMSO was 0.1% (v/v). Following the addition of Compound 1 or DMSO and incubation for 120 hours, cell number and cell death were analyzed by flow cytometry (Attune®, Thermo Fisher) using Annexin V and the live-cell impermeant DNA dye, DRAQ7. Phosphatidylserine translocates from the inner layer to the outer layer of the cell membrane early in apoptosis and Annexin V binds to the exposed phosphatidylserine found on the surface of an apoptotic cell. The vital dye DRAQ7 is excluded by intact live cells and only stains cells that have died as a result of apoptosis or necrosis.
(§3) Flow cytometry data analysis was then performed using the Flow Jo_v10 software to determine the number of viable cells (Annexin V and DRAQ7 double negative staining cells) and percentage of apoptotic cells (Annexin V positive cells) for each condition. The live cell count for every concentration was normalized to the DMSO control (considered as 100%) to calculate the percentage of viable cells remaining after treatment and graphed using GraphPad Prism 7.03. The IC50 (50% inhibitory concentration) and Emax (maximum efficacy achieved) values were then calculated by performing nonlinear regression curve fitting using log(inhibitor) vs. normalized response—variable slope analysis on GraphPad Prism 7.03. Area under the curve (AUC) was calculated by performing area under curve analysis on GraphPad Prism 7.03. Similarly, for apoptosis analysis, the percentage of apoptosis combining both “early” (Annexin V positive and DRAQ7 negative) and “late” apoptosis (Annexin V and DRAQ7 positive) cell gates relative to DMSO was graphed using GraphPad Prism 7.03. The AUC, EC50 (concentration of compound that produces half-maximal apoptosis response) and Ymax (maximal percentage of apoptosis achieved) values from apoptosis curves were calculated by performing area under curve analysis and nonlinear regression curve fitting using log(agonist) vs. normalized response—Variable slope analysis on GraphPad Prism 7.03.
(§4) Dose-response proliferation curves for the panel of hematological cell lines and non-linear curve-fit regression were used to determine IC50, AUC, and Emax for % viable cells (Emax for viability varies between 100 at low doses and 0 at high doses, which corresponds to inhibition of all viable cells), and dose-response apoptosis curves were used to determine the EC50, AUC, and Ymax for % apoptosis (Ymax for apoptosis varies from 0 at low doses and 100 at higher doses which corresponds to death of all cells). Tumor cells were exposed to serial dilutions (0.00015 to 10 μM) of Compound 1 or dimethyl sulfoxide (DMSO) control for 5 days. Viability and apoptosis for all cell lines was determined by Annexin V/7-aminoactinomycin D (7-AAD) flow cytometry.

RL cell line = assay: as above; settings: RL (FL); 120 h
Protocol: as §1, §2, §3, §4

SK-MM-1 cell line = assay: as above; settings: SK-MM-1 (MM, PCL), 120 h
Protocol: as §1, §2, §3, §4

WA-C3-CD5+ cell line = assay: as above; settings: WA-C3-CD5+ (CLL), 120 h
Protocol: as §1, §2, §3, §4

Farage cell line = assay: as above; settings: Farage (DLBCL PMBL); 120 h
Protocol: as §1, §2, §3, §4

Mino cell line = assay: as above; settings: Mino (MCL); 120 h
Protocol: as §1, §2, §3, §4

SU-DHL-6 cell line = assay: as above; settings: SU-DHL-6 (DLBCL GCB); 120 h
Protocol: as §1, §2, §3, §4

For `O=C1CC[C@H](N2C(=O)c3cccc(NCc4ccc(CN5CC(N6CCOCC6)C5)cc4F)c3C2=O)C(=O)N1` [Compound 1, (S)-2-(2,6-dioxopiperidin-3-yl)-4-((2-fluoro-4-((3-morpholinoazetidin-1-yl)methyl)benzyl)amino)isoindoline-1,3-dione], the “antiproliferative activity and/or apoptotic effects” value (hematological cell lines) was “antiproliferative activity and/or apoptotic effects in almost all hematological cell lines tested”, the pIC50 (SU-DHL-4 cell line) was greater than 6.70 and the pEC50 (NCI-H929 cell line; Homo sapiens) was 4.95. For the same compound, the pIC50 (NCI-H929 cell line; Homo sapiens, read-out: % Viable Cells IC50) was 9.15, the “% Viable Cells AUC” value (NCI-H929 cell line) was 215.5 and the “% Viable Cells Emax” value (NCI-H929 cell line) was 6.1%. The “Apoptosis AUC” value (NCI-H929 cell line) was 16.86, the “Apoptosis Ymax” value (NCI-H929 cell line) was 7.00% and the “% Viable Cells AUC” value (RL cell line) was 234.8. For the same compound, the “% Viable Cells Emax” value (RL cell line) was 21.55%, the “Apoptosis AUC” value (RL cell line) was 115.9 and the “Apoptosis Ymax” value (RL cell line) was 13.93%. For the same compound, the “% Viable Cells AUC” value (SK-MM-1 cell line) was 202.2, the “% Viable Cells Emax” value (SK-MM-1 cell line) was 3% and the “Apoptosis AUC” value (SK-MM-1 cell line) was 90.99. The “Apoptosis Ymax” value (SK-MM-1 cell line) was 44.5%, the pEC50 (SK-MM-1 cell line) was 4.06 and the pIC50 (SK-MM-1 cell line; read-out: % Viable Cells IC50) was 9.10. For the same compound, the “% Viable Cells AUC” value (WA-C3-CD5+ cell line) was 474.8, the “% Viable Cells Emax” value (WA-C3-CD5+ cell line) was 44.2% and the “Apoptosis AUC” value (WA-C3-CD5+ cell line) was 162.9. The “Apoptosis Ymax” value (WA-C3-CD5+ cell line) was 17.47%, the pEC50 (WA-C3-CD5+ cell line) was 7.28 and the pIC50 (WA-C3-CD5+ cell line; read-out: % Viable Cells IC50) was 6.28. For the same compound, the “% Viable Cells AUC” value (Farage cell line) was 10.16, the “% Viable Cells Emax” value (Farage cell line) was 0.7936% and the “Apoptosis AUC” value (Farage cell line) was 728.7. For the same compound, the “Apoptosis Ymax” value (Farage cell line) was 84.17%, the “% Viable Cells AUC” value (Mino cell line) was 62.67 and the “% Viable Cells Emax” value (Mino cell line) was 5.638%. The “Apoptosis AUC” value (Mino cell line) was 968.2, the “Apoptosis Ymax” value (Mino cell line) was 97.04% and the “% Viable Cells AUC” value (SU-DHL-6 cell line) was 19.94. For the same compound, the “% Viable Cells Emax” value (SU-DHL-6 cell line) was 0.2469%, the “Apoptosis AUC” value (SU-DHL-6 cell line) was 920.7 and the “Apoptosis Ymax” value (SU-DHL-6 cell line) was 95.92%.
